The values below come from ChEMBL document CHEMBL1157177, “Trivalent, Gal/GalNAc-containing ligands designed for the asialoglycoprotein receptor” (Bioorg Med Chem, 2008).

This assay is described as follows: Displacement of [125I]asialoorosomucoid from ASGP receptor.

With `COC(=O)CCCCC(=O)NCC(=O)NC(COCOCCOCCOCCOCCO[C@@H]1O[C@H](CO)[C@H](O)[C@H](O)[C@H]1O)(COCOCCOCCOCCOCCO[C@@H]1O[C@H](CO)[C@H](O)[C@H](O)[C@H]1O)COCOCCOCCOCCOCCO[C@@H]1O[C@H](CO)[C@H](O)[C@H](O)[C@H]1O`, the affinity, expressed as Ki, was 200 nM.

Consider `O=C(CCCCO[C@@H]1O[C@H](CO)[C@H](O)[C@H](O)[C@H]1O)NCCCNC(=O)CCOCC(COCCC(=O)NCCCNC(=O)CCCCO[C@@H]1O[C@H](CO)[C@H](O)[C@H](O)[C@H]1O)(COCCC(=O)NCCCNC(=O)CCCCO[C@@H]1O[C@H](CO)[C@H](O)[C@H](O)[C@H]1O)NC(=O)CNC(=O)OCc1ccccc1`, for which the Ki (in general, a dissociation constant, usually derived from enzyme kinetics or from competition with a known ligand) came out at 93 nM.

The compound `CC(=O)N[C@H]1[C@H](OCCOCCOCCNC(=O)CCOCC(COCCC(=O)NCCOCCOCCO[C@@H]2O[C@H](CO)[C@H](O)[C@H](O)[C@H]2NC(C)=O)(COCCC(=O)NCCOCCOCCO[C@@H]2O[C@H](CO)[C@H](O)[C@H](O)[C@H]2NC(C)=O)NC(=O)CN)O[C@H](CO)[C@H](O)[C@@H]1O` came in with a Ki of 2 nM.
